The subject of experiment [1] is Lactobacillus plantarum CHCC14158. Kind of experiment: D-cycloserine resistance assay (OD600 growth in GJ-5 medium). The following applies: Lactiplantibacillus plantarum, strain CHCC14158, 24 hours growth at 18° C., vs 0 μg/ml D-cycloserine, read-out: amount of D-cycloserine that reduces the OD600 measured growth with 50%. Type of experiment: cell-based. The procedure: (§1) Medium: The medium is the known Grape Juice GJ-5 medium described in column 20, lines 10 to 20 of U.S. Pat. No. 7,112,346 (Chr. Hansen A/S).
(§2) As described in lines 10 to 20 of U.S. Pat. No. 7,112,346—the GJ-5 medium has the following composition: • Grape juice concentrate 70.0 g • Yeast paste 30.0 g • Tween 80 0.5 g • MnSO4H2O 0.1 g • Tap water 900.0 g
(§3) A Lactobacillus plantarum strain of interest is inoculated into 10 ml GJ-5 medium containing one of the following amounts of D-cycloserine: 0 μg/ml, 10 μg/ml, 20 μg/ml, 30 μg/ml, 50 μg/ml, 70 μg/ml, 100 μg/ml, 150 μg/ml or 200 μg/ml of D-cycloserine. The strain is grown 24 hours at 18° C. in the GJ-5 medium with the different concentrations of D-cycloserine.
(§4) After the 24 hours growth is OD600 measured for all samples.

Experiment [2] has as its system Lactobacillus plantarum CHCC14254. The experiment is described as above. Type of experiment: cell-based. As to conditions: Lactiplantibacillus plantarum, strain CHCC14254, 24 hours growth at 18° C., vs 0 μg/ml D-cycloserine, read-out: amount of D-cycloserine that reduces the OD600 measured growth with 50%. As to the method:
as §1, §2, §3, §4

The test system of experiment [3] is Lactobacillus plantarum CHCC14255. The experiment is described as above. Type of experiment: cell-based. The following applies: Lactiplantibacillus plantarum, strain CHCC14255, 24 hours growth at 18° C., vs 0 μg/ml D-cycloserine, read-out: amount of D-cycloserine that reduces the OD600 measured growth with 50%. The procedure: as §1, §2, §3, §4
The subject of experiment [4] is Lactobacillus plantarum CHCC14158. The following applies: strain CHCC14158; GJ-5 medium with 11% ethanol, 3 days incubation at 25° C. The procedure: (§5) Medium: The medium is the standard GJ-5 medium as used in Example 1 above.
(§6) A Lactobacillus plantarum cell that has an improved resistance towards ethanol as discussed herein—is herein defined as a Lactobacillus plantarum cell that can grow to an OD600 of at least 0.8 after 3 days incubation at 25° C. in the GJ-5 medium with 11% ethanol.

In experiment [5] the test system is Lactobacillus plantarum CHCC14254. As to conditions: strain CHCC14254; GJ-5 medium with 11% ethanol, 3 days incubation at 25° C. The procedure:
as §5, §6

For experiment [6], the system named is Lactobacillus plantarum CHCC14255. As to conditions: strain CHCC14255; GJ-5 medium with 11% ethanol, 3 days incubation at 25° C. As to the method:
as §5, §6

Converted amounts (≈) assume the structure as drawn.

With `N[C@@H]1CON=C1O` [D-cycloserine, D-4-amino-isoxazolidone], the IC50 in experiment [1] was 60 to 65 µg/mL (≈ 588 to 637 µM); in experiment [2], about 100 µg/mL (≈ 979 µM); in experiment [3] it was about 100 µg/mL (≈ 979 µM).

On to `CCO` [ethanol], for which the “OD600 reached by growth in presence of ethanol” value in experiment [4] is “around 0.65”; in experiment [5] it was “at least 0.8”; in experiment [6], “more than 1”.

Values taken from patent US9469831B2, “Lactobacillus plantarum cells with improved resistance to high concentrations of ethanol” (Chr. Hansen A/S, priority 2011, dated 2016).
